According to patent US9078843B2, “Immunogenic fragments of T-cell receptor constant domains and peptides derived therefrom” (priority 2005, dated 2015):

What was measured:
[1] = tested on: draining lymph node cells (LNC); assay: T-cell proliferation of lymph node cells from vaccinated rats ([methyl-3H]-thymidine, stimulation index); assay type: cell-based, Lewis rats; conditions: for proliferative responses of LNC to PPD: LNC from peptide immunized rats; for T-cell responses of immunized rats to the immunizing peptide (immunogenicity): rats vaccinated with the peptide, FIG. 6B
Procedure: Unless otherwise stated, T-cell proliferation assays were performed at day 26 after the induction of AA, when the disease is at its peak, as previously described (Quintana et al 2002). Briefly, popliteal and inguinal lymph node cells (LNC), were cultured in quadruplicates in 200 μl round bottom microtiter wells (Costar Corp., Cambridge, USA) at 2×10^5 cells per well with or without antigen. The T-cell mitogen Concanavalin A (Con A) was used as a positive control for T-cell proliferation. Cultures were incubated for 96 hrs at 37° C. in a humidified atmosphere of 5% CO2. T-cell responses were detected by the incorporation of [methyl-3H]-thymidine (Amersham, Buckinghamshire, UK; 1 μCi/well), which was added to the wells for the last 18 hours. The stimulation index (SI) was computed as the ratio of the mean c.p.m. of antigen- or mitogen-containing wells to control wells cultured with medium alone. The results of T-cell proliferation experiments are shown as SI±SEM, T-cell responses with SI<2 were considered not significant.
To study the immune responses associated with the inhibition of AA by DNA vaccination with pβC1 or pβC2, we analyzed the T-cell responses of immunized rats 26 days after the induction of AA. We stimulated draining lymph node cells (LNC) in vitro with a collective of Mycobacterial antigens known to be associated with AA: HSP65, PPD and Mt176-190. The Mt176-190 peptide contains the 180-188 epitope of HSP65 described by van Eden et al which is recognized by HSP65-specific T-cell clones that can transfer AA (van Eden et al 1985). We also studied the immune response directed to recombinant βC1 and recombinant βC2, or to βC1/2 peptides predicted to bind the MHC class II molecule of the Lewis rat (see Table 1). Glutathione-S-transferase (GST) was included as a control antigen. […] 149 (MED12).
To study the effect of C1/2 vaccination on the immune response to C1/2 peptides and to the target antigens of AA, we vaccinated rats with rβC1 or rβC2, and then induced AA. At day 26, we removed the draining lymph nodes and measured the T-cell proliferative responses to peptides N12 (SEQ ID NO:147), MED12 (SEQ ID NO:149) or C2C (SEQ ID NO:152), or to the Mycobacterial antigens. […] Thus the C1/2 peptides are immunologically dominant.

[2] = tested on: adjuvant arthritis (AA); assay: Adjuvant arthritis (AA) after vaccination with recombinant proteins or peptides; assay type: in vivo, Lewis rats; conditions: single ip dose of 100 μg protein or peptide in IFA, AA induced seven days later; FIG. 4
Procedure: AA was induced as described (Quintana et al 2002), using 1 mg per rat of heat-killed Mt strain H37Ra (Difco). Each experimental and control group contained at least 8 rats. The day of AA induction was designated as day 0, and disease severity was assessed by direct observation of all 4 limbs in each animal. A relative score between 0 and 4 was assigned to each limb, based on the degree of joint inflammation, redness and deformity; thus the maximum possible score for an individual animal was 16 (Quintana et al 2002). The mean AA score (±SEM) is shown for each experimental group. Arthritis was also quantified by measuring hind limb diameter with a caliper. Measurements were taken on the day of the induction of AA and 26 days later (at the peak of AA); the results are presented as the mean±SEM of the difference between the two values for all the animals in each group. The person who scored the disease was blinded to the identity of the groups. Experiments were repeated at least 3 times and produced similar results.
Female Lewis rats were immunized ip with a single dose of 100 μg of peptide or recombinant protein emulsified in IFA.
We studied the immune effects of vaccination with recombinant C1 (rβC1) or C2 (rβC2), or with C1/2-derived peptides (Table 1). Female Lewis rats were immunized with a single ip dose of 100 μg of protein or peptide in IFA, and seven days later AA was induced.

[3] = tested on: IgG in sera; assay: Antigen microarray, serum IgG binding to TCR gamma constant region peptides; design: species or system human; conditions: for Antigen Binding (Mean Intensity) IgG: serum 1:5
Excerpt: (§1) The antigenicity of peptides derived from human T-cell receptor gamma-chain constant region (accession no: AAB63314; SEQ ID NO:173) was essayed using antigen array technology, as detailed below.
(§2) Serum samples: Blood samples were obtained by random availability from 12 healthy adults and from 9 adults newly diagnosed with lung cancer, before treatment. All samples were collected with informed consent and approval of the Helsinki committee of the Sheba Medical Center, Tel Hashomer, Israel. The blood samples were allowed to clot at room temperature. After centrifugation, sera were collected and stored at −20° C.
(§3) Antigen microarray: Antigens diluted in PBS were placed in 384-well plates at a concentration of 1 μg/μl. We used a robotic MicroGrid arrayer with solid spotting pins of 0.2 mm in diameter (BioRobotics, Cambridge, U.K.) to spot the antigens onto ArrayIt SuperEpoxi microarray substrate slides (TeleChem, Sunnyvale, Calif.). the antigens were spotted in replicates of 4, and the microarrays were blocked for 1 h at 37° C. with 1% bovine serum albumin, and incubated under a cover-slip overnight at 4° C. with a 1:5 dilution of the test serum in blocking buffer. The quantitative range of signal intensity of binding to each antigen spot was 0.01-65,000, and this range of detection made it possible to record reliable data with little dilution of test samples. The arrays were then washed and incubated for 1 hour at 37° C. with a 1:500 dilution of detection antibodies. Two detection antibodies were used: a goat anti-human IgG Cy3-conjugated antibody and a goat anti-human IgM Cy5-conjugated antibody, purchased from Jackson ImmunoResearch, West Grove, Pa. The arrays were washed again, spin-dried, and scanned with a ScanArray 4000× scanner (GSI Luminomics, Billerica, Mass.). The results were recorded as TIFF files. Image acquisition by laser and quantification were done as described (Quintana et al., 2004).
(§4) Data preprocessing and background filtering: Antigen reactivity was defined by the mean intensity of the 4 replicates of binding to that antigen on the microarray. We identified positive antibodies in the following way: To establish the minimum level of significant antibody binding, we calculated the mean reactivity level of 32 spots incubated with phosphate buffered saline (PBS) in place of an antigen on each microarray slide. A signal was scored as positive when it expressed intensity greater than the upper limit of the PBS control, which was defined as the mean intensity of the PBS spots plus 2-times the standard deviation. Signal intensity above the PBS background was considered positive antibody binding.
(§5) The presence of IgG and IgM in sera obtained from patients with lung cancer and from healthy controls was determined using the antigen microarray, as detailed above. The results, presented in Table 13, represent the mean reactivity of 12 control subjects and 9 lung cancer subjects.

[4] = tested on: IgM in sera; assay: Antigen microarray, serum IgM binding to TCR gamma constant region peptides; design: species or system human; conditions: serum 1:5
Excerpt: as §1, §2, §3, §4, §5

[5] = HEALTHY CONTROLS, mean of 12 subjects
[6] = LUNG CANCER, mean of 9 subjects

Substance	proliferative responses of LNC to PPD ([1]; FIG. 6A)	T-cell responses of immunized rats to the immunizing peptide (immunogenicity) [1]	severity of the disease (AA score) [2]	Antigen Binding (Mean Intensity) IgG [3, 5]	Antigen Binding (Mean Intensity) IgG [3, 6]	Antigen Binding (Mean Intensity) IgM [4, 5]	Antigen Binding (Mean Intensity) IgM [4, 6]	proliferative responses of LNC to mt180 and HSP65 ([1]; LNC from peptide-vaccinated rats, FIG. 6A)	response of antibodies to the peptide ([3]; antibodies from control subjects)
vtppkvslfepseaeia (VTPPKVSLFEPSEAEIA; listed as Rattus norvegicus) [N12]	increased proliferative responses	significant T-cell responses	significantly decreased	–	–	–	–	–	–
KEHRCIVDTLLLQL [SEQ ID NO:165]	–	–	–	95	1095	97	103	–	–
vlvsalvlmamvkkkns (VLVSALVLMAMVKKKNS; listed as Rattus norvegicus) [C2C]	increased proliferative responses	significant T-cell responses	significantly decreased	–	–	–	–	increased proliferative responses	–
DQEIIFPPIKT [SEQ ID NO:161]	–	–	–	−147	846	86	160	–	–
KAGTYLCLLEKFFPDVIKI [SEQ ID NO:158]	–	–	–	2233	2116	1753	2381	–	responded
AYYMYLLLLLKSVVYFAIIT [SEQ ID NO:166]	–	–	–	199	996	87	140	–	–
VVYFAIITCCLLRRTAFCCN [SEQ ID NO:167]	–	–	–	376	1928	548	512	–	–
dspkpvtqnisaeawgr (DSPKPVTQNISAEAWGR; listed as Rattus norvegicus) [MED12]	increased proliferative responses	significant T-cell responses	significantly decreased	–	–	–	–	–	–
KPTIFLPSSWLTVPE [SEQ ID NO:164]	–	–	–	−240	−114	−24	86	–	–
